Measured values from PMC12396409, “Screening and hit evaluation of a microbial metabolite library against the pathogenic Plasmodium falciparum and Toxoplasma gondii parasites” (International Journal for Parasitology: Drugs and Drug …, 2025).
Where two headings read alike, the source gives them in different places.

Tests used:
[1] = system: P. falciparum 3D7 parasites; assay: P. falciparum growth inhibition assay, 1-cycle (72 h treatment), SYBR DNA staining (library screen at 2 μg/mL and dose-response); type: cell-based, Plasmodium falciparum; settings: for activity at 2 µg/mL: Plasmodium falciparum, 3D7
[2] = system: P. falciparum 3D7 parasites; assay: P. falciparum growth inhibition assay, 2-cycle (120 h treatment), delayed-death screen and dose-response; type: cell-based, Plasmodium falciparum; settings: for activity at 2 µg/mL: Plasmodium falciparum, 3D7
[3] = system: T. gondii RH strain (RH-Tub-eYFP) tachyzoites; assay: microbe, parasite or virus in culture; type: cell-based, Toxoplasma gondii; settings: 72 h; for percent parasite growth at 2 µg/mL: Toxoplasma gondii
[4] = P. falciparum, 72 h, screen at 2 μg/mL, replicate 1
[5] = P. falciparum, 72 h, screen at 2 μg/mL, replicate 2
[6] = P. falciparum, 120 h, screen at 2 μg/mL, replicate 1
[7] = P. falciparum, 120 h, screen at 2 μg/mL, replicate 2
[8] = T. gondii, screen at 2 μg/mL, replicate 1
[9] = T. gondii, screen at 2 μg/mL, replicate 2
[10] = P. falciparum, 72 h, parasite screen 2 μg/mL, % growth, replicate 1, read-out: Pf_72h_%Growth_Rep1
[11] = P. falciparum, 72 h, parasite screen 2 μg/mL, % growth, replicate 2, read-out: Pf_72h_%Growth_Rep2
[12] = P. falciparum, 120 h, parasite screen 2 μg/mL, % growth, replicate 1, read-out: Pf_120h_%Growth_Rep1
[13] = P. falciparum, 120 h, parasite screen 2 μg/mL, % growth, replicate 2, read-out: Pf_120h_%Growth_Rep2
[14] = T. gondii, parasite screen 2 μg/mL, % growth, replicate 1, read-out: Tg_72h_%Growth_Rep1
[15] = T. gondii, parasite screen 2 μg/mL, % growth, replicate 2, read-out: Tg_72h_%Growth_Rep2
[16] = library screen at 2 μg/mL, 72 h, % growth, replicate 1
[17] = library screen at 2 μg/mL, 72 h, % growth, replicate 2
[18] = library screen at 2 μg/mL, 120 h, % growth, replicate 1
[19] = library screen at 2 μg/mL, 120 h, % growth, replicate 2
[20] = library screen at 2 μg/mL, % growth, replicate 1
[21] = library screen at 2 μg/mL, % growth, replicate 2

Molecule	Pf_72h_%Growth_Rep1 [1, 4]	Pf_72h_%Growth_Rep2 [1, 5]	Pf_120h_%Growth_Rep1 [2, 6]	Pf_120h_%Growth_Rep2 [2, 7]	Tg_72h_%Growth_Rep1 [3, 8]	Tg_72h_%Growth_Rep2 [3, 9]	Pf_72h_%Growth_Rep1 [1, 16]	Pf_72h_%Growth_Rep2 [1, 17]	Pf_120h_%Growth_Rep1 [2, 18]	Pf_120h_%Growth_Rep2 [2, 19]	Tg_72h_%Growth_Rep1 [3, 20]	Tg_72h_%Growth_Rep2 [3, 21]	also measured
CC(C)[C@@H]1NC(=O)[C@@H]2CCCN2C1=O [Cyclo(L-Pro-L-Val)]	85.07%	82.22%	101.90%	92.75%	147.92%	100.59%	–	–	–	–	–	–	–
C/C(=C\C(=O)OCCCCCCCCC(=O)O)C[C@@H]1OC[C@H](C[C@@H]2O[C@H]2[C@@H](C)[C@H](C)O)[C@@H](O)[C@H]1O [Pseudomonic acid]	–	–	–	–	–	–	–	–	–	–	–	–	activity at 2 µg/mL [1, 10]: 29.1%; activity at 2 µg/mL [1, 11]: 6.31%; activity at 2 µg/mL [2, 12]: 0.62%; activity at 2 µg/mL [2, 13]: 28.1%; percent parasite growth at 2 µg/mL [3, 14]: 70.8%; percent parasite growth at 2 µg/mL [3, 15]: 74.5%
C[C@@H]1CCC[C@H](O)CCC/C=C/c2cc(O)cc(O)c2C(=O)O1 [Zearalenol, beta-]	92.46%	126.46%	110.27%	105.90%	134.26%	80.69%	–	–	–	–	–	–	–
CC1(C)CCC[C@]2(C)[C@@H](C=O)C(C=O)=CC[C@@H]12 [Polygodial]	–	–	–	–	–	–	–	–	–	–	–	–	activity at 2 µg/mL [1, 10]: 1.12%; activity at 2 µg/mL [1, 11]: -3.71%; activity at 2 µg/mL [2, 12]: 6.02%; activity at 2 µg/mL [2, 13]: 28.5%; percent parasite growth at 2 µg/mL [3, 14]: 101%; percent parasite growth at 2 µg/mL [3, 15]: 101%
COCCC[C@H]1O[C@@](O)([C@H](C)C2CC(OC)C(O)/C=C(C)/C=C(C)/C=C(/C)C(O[C@H]3O[C@H](C)[C@@H](OC)[C@H](O)[C@H]3O)C(C)/C=C(C)/C=C(OC)\C=C(/C)C(=O)O2)[C@H](OC)[C@@H](O)[C@]1(C)O[C@H]1C[C@H](O)[C@H](O[C@H]2C[C@@](C)(O)[C@H](O)[C@@H](C)O2)[C@@H](C)O1 (stereo partly drawn) [Amycolatopsin B]	–	–	–	–	–	–	44.61%	41.71%	16.58%	9.62%	0.29%	0.85%	–
CC(C)[C@H]1C(=O)OC[C@H](NC(=O)c2nc3ccccc3cc2O)C(=O)N2CCCC[C@@H]2C(=O)NCC(=O)N(C)CC(=O)N(C)[C@H](C(C)C)C(=O)OC[C@@H](NC(=O)c2nc3ccccc3cc2O)C(=O)N2CCCC[C@@H]2C(=O)NCC(=O)N(C)CC(=O)N1C [Sandramycin]	–	–	–	–	–	–	–	–	–	–	–	–	Pf_72h_%Growth_Rep1 ([1]; P. falciparum, 72 h, parasite screen 2 μg/mL, % growth, replicate 1): -1.10%; Pf_72h_%Growth_Rep2 ([1]; P. falciparum, 72 h, parasite screen 2 μg/mL, % growth, replicate 2): -0.11%; Pf_120h_%Growth_Rep1 ([2]; P. falciparum, 120 h, parasite screen 2 μg/mL, % growth, replicate 1): -0.53%; Pf_120h_%Growth_Rep2 ([2]; P. falciparum, 120 h, parasite screen 2 μg/mL, % growth, replicate 2): 18.12%; Tg_72h_%Growth_Rep1 ([3]; T. gondii, parasite screen 2 μg/mL, % growth, replicate 1): 1.61%; Tg_72h_%Growth_Rep2 ([3]; T. gondii, parasite screen 2 μg/mL, % growth, replicate 2): 2.90%
CC(=O)c1c(O)cc(O)c(C(C)=O)c1O [Diacetylphloroglucinol]	–	–	–	–	–	–	86.52%	90.35%	64.84%	102.18%	140.70%	94.75%	–
Telomycin	87.11%	125.88%	103.58%	79.40%	151.31%	89.83%	–	–	–	–	–	–	–
C[C@H]1C(=O)O[C@@H]2CCN3CC=C(COC(=O)[C@](C)(O)[C@]1(C)O)[C@H]23 [BIA-M1801]	–	–	–	–	–	–	–	–	–	–	–	–	Pf_72h_%Growth_Rep1 ([1]; P. falciparum 3D7, 72 h, parasite screen at 2 μg/mL, % growth, replicate 1): 85.52%; Pf_72h_%Growth_Rep2 ([1]; P. falciparum 3D7, 72 h, parasite screen at 2 μg/mL, % growth, replicate 2): 78.69%; Pf_120h_%Growth_Rep1 ([2]; P. falciparum 3D7, 120 h, parasite screen at 2 μg/mL, % growth, replicate 1): 81.80%; Pf_120h_%Growth_Rep2 ([2]; P. falciparum 3D7, 120 h, parasite screen at 2 μg/mL, % growth, replicate 2): 104.58%; Tg_72h_%Growth_Rep1 ([3]; T. gondii, parasite screen at 2 μg/mL, % growth, replicate 1): 108.79%; Tg_72h_%Growth_Rep2 ([3]; T. gondii, parasite screen at 2 μg/mL, % growth, replicate 2): 79.49%
CN1C(=O)c2ccccc2NC(=O)[C@]12O[C@@H]2c1ccccc1 [Cyclopenin]	83.83%	77.00%	83.48%	80.30%	136.91%	103.54%	–	–	–	–	–	–	–
CC(CCCCCCCCCCCCCCOC1OC(CO)C(O)C(O)C1O)C(O)=C1C(=O)C(C)N(C)C1=O (stereo not drawn) [Epicoccamide]	–	–	–	–	–	–	87.59%	88.25%	94.92%	97.01%	135.91%	106.99%	–
CC[C@H]1CC2CN3CCc4c([nH]c5ccc(OC)cc45)[C@](C(=O)OC)(C2)[C@H]13 (stereo in doubt) [Voacangine]	–	–	–	–	–	–	–	–	–	–	–	–	activity at 2 µg/mL ([1]; P. falciparum, 72 h, screen at 2 μg/mL, replicate 1, read-out: Pf_72h_%Growth_Rep1): 86.5%; activity at 2 µg/mL ([1]; P. falciparum, 72 h, screen at 2 μg/mL, replicate 2, read-out: Pf_72h_%Growth_Rep2): 89.9%; activity at 2 µg/mL ([2]; P. falciparum, 120 h, screen at 2 μg/mL, replicate 1, read-out: Pf_120h_%Growth_Rep1): 164%; activity at 2 µg/mL ([2]; P. falciparum, 120 h, screen at 2 μg/mL, replicate 2, read-out: Pf_120h_%Growth_Rep2): 91%; percent parasite growth at 2 µg/mL ([3]; T. gondii, screen at 2 μg/mL, replicate 1, read-out: Tg_72h_%Growth_Rep1): 89.9%; percent parasite growth at 2 µg/mL ([3]; T. gondii, screen at 2 μg/mL, replicate 2, read-out: Tg_72h_%Growth_Rep2): 96.7%
CCCCCC[C@H]1C(=O)O[C@H](C)[C@H](NC(=O)c2cccc(NC=O)c2O)C(=O)O[C@@H](C)[C@@H]1OC(=O)CC(C)C [Antimycin A1]	–	–	–	–	–	–	7.57%	13.46%	-1.25%	6.08%	5.65%	4.89%	–
CCCC[C@@]1(OC(=O)CCC(=O)O)CC[C@]2(CC[C@H](C)[C@@H](C/C=C(C)/C=C/[C@H](O)[C@@H](C)/C=C/C(=O)O)O2)O[C@H]1/C=C/C(C)=C/C(=O)O [Reveromycin A]	–	–	–	–	–	–	–	–	–	–	–	–	activity at 2 µg/mL [1, 10]: 75.9%; activity at 2 µg/mL [1, 11]: 65.4%; activity at 2 µg/mL [2, 12]: 69.8%; activity at 2 µg/mL [2, 13]: 88.5%; percent parasite growth at 2 µg/mL [3, 14]: 119%; percent parasite growth at 2 µg/mL [3, 15]: 88.8%
CC[C@H](C)[C@H]1O[C@]2(C=C[C@@H]1C)C[C@@H]1C[C@@H](C/C=C(\C)[C@@H](O[C@H]3C[C@H](OC)[C@@H](O[C@H]4C[C@H](OC)[C@@H](O)[C@H](C)O4)[C@H](C)O3)[C@@H](C)/C=C/C=C3\CO[C@@H]4[C@H](O)C(C)=C[C@H](C(=O)O1)[C@]34O)O2 [Avermectin B1a, epi-]	–	–	–	–	–	–	8.49%	20.73%	5.66%	-2.43%	34.09%	40.50%	–
Cc1c2c(c(O)c3c(O)ccc(Cl)c13)C(=O)[C@]1(O)C(O)=C(C(N)=O)C(=O)[C@@H](N(C)C)[C@@H]1C2.Cl [Anhydrochlortetracycline hydrochloride]	–	–	–	–	–	–	86.52%	88.12%	62.00%	93.26%	107.44%	94.77%	–
COc1cc(O)c2c(c1C)C(C)C(O)(CO)OC2=O (stereo not drawn) [Banksialactone A]	–	–	–	–	–	–	70.20%	86.53%	148.50%	82.39%	101.56%	97.07%	–
CC1=C[C@H]2C(=O)O[C@H]3C[C@@H](C/C=C(/C)[C@@H](O)[C@@H](C)/C=C\C=C4CO[C@H]([C@@H]1O)[C@@]42O)O[C@@]1(C=C[C@H](C)[C@@H](C2CCCCC2)O1)C3 [Doramectin aglycone]	–	–	–	–	–	–	80.09%	78.66%	86.97%	81.83%	167.81%	107.39%	–
CCC(=O)[C@@H](C)[C@@H](O)[C@H](C)C[C@@H](C)[C@H]1OC(=O)C[C@@]2(O)CC=C(C)[C@H](O2)/C(C)=C/CCC[C@@H](O[C@H]2C[C@@H](O)[C@H](O)[C@@H](C)O2)/C=C/[C@H](C)C[C@H]1C [Venturicidin B]	25.34%	5.57%	23.65%	5.91%	0.31%	1.90%	–	–	–	–	–	–	–
CC[C@H]1NC(=O)[C@@H](NC(=O)c2ncccc2O)[C@@H](C)OC(=O)[C@H](c2ccccc2)NC(=O)[C@@H]2CC(=O)CCN2C(=O)[C@H](Cc2ccccc2)N(C)C(=O)[C@@H]2CCCN2C1=O [Virginiamycin S1]	88.54%	126.74%	110.70%	75.61%	137.70%	85.91%	–	–	–	–	–	–	–
